Literature values in patent publication US7335651B2, “Compositions incorporating(-)-hydroxycitric acid and related methods for promoting fat oxidation” (Interhealth Nutraceuticals Incorporated, priority 2001, dated 2008).
Read-outs that look alike come from different tables or passages of the source.

What was measured:
[1] = acute toxicity tests
[2] = target: T1, ATP-citrate lyase (Homo sapiens, UniProt P53396)
T1 sequence (P53396 1-1101): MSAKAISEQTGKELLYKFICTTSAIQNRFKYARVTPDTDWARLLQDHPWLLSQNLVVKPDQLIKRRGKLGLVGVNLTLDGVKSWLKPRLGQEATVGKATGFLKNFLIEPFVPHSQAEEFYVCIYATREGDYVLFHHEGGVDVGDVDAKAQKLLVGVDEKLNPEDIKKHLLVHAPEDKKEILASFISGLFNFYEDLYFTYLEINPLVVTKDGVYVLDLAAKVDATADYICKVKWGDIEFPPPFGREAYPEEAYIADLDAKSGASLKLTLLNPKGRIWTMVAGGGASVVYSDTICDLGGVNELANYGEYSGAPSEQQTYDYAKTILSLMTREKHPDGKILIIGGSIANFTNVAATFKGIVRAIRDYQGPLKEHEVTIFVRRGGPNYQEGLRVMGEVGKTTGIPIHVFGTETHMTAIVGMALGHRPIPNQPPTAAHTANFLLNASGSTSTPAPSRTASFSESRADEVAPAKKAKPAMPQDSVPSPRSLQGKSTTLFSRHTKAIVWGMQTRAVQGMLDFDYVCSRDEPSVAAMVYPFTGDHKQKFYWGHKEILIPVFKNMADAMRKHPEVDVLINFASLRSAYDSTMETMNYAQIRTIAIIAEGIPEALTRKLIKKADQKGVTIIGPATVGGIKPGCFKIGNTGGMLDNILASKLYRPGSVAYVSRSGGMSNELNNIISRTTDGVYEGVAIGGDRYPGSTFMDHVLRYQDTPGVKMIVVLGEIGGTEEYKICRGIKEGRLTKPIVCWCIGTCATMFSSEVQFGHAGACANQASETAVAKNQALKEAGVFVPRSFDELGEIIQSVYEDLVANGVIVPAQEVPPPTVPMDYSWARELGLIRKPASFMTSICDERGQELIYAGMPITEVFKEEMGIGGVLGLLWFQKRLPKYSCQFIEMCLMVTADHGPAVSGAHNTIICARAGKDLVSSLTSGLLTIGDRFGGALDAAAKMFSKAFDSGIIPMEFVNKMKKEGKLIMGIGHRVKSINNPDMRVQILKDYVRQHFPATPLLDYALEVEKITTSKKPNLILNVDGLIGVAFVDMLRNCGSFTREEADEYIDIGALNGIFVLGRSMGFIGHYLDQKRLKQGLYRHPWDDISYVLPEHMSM

[3] = system: liver lipogenesis; conditions: rats; acute oral dose 2.63 mmoles/kg (roughly 594 mg/kg) before a standardized synthetic meal; up to 8 hours after the meal
[4] = system: growing rats; conditions: thirty days
[5] = system: young obese women; conditions: eight weeks
[6] = system: DNA

Compound | Acute toxicity compared with citric acid [1] | Mode of inhibition of ATP-citrate lyase [2] | Decrease in liver lipogenesis [3] | Decrease in body weight gain ([4]; 0.33 mmoles/kg twice daily) | Decrease in body weight gain ([4]; 2.63 mmoles/kg once daily) | Decrease in body weight gain ([4]; single daily administration) | Body weight change with exercise ([5]; in combination with exercise, O-NBC at 400 micrograms chromium per day) | Body weight change without exercise ([5]; no exercise) | DNA damage and mutagenicity [6]
O=C(O)CC(O)(C(=O)O)C(O)C(=O)O (single isomer, unassigned; (-)) [HCA, (−)-hydroxycitric acid] | even safer than citric acid | competitive inhibitor | roughly 70% | significant | significant | no significant reductions |  |  | 
chromium picolinate |  |  |  |  |  |  | no change in weight | significant weight gain | damage DNA and be mutagenic
